Values after ≈ are worked out from the molar mass of the structure shown. Read-outs that look alike come from different tables or passages of the source.
Tests used:
Assay in all cases: Antibacterial activities, MIC
Format in all cases: cell-based
Ser. marcescens ES-75 = system: Ser. marcescens ES-75
Morg. morganii EP-14 = system: Morg. morganii EP-14
Escher. coli NIHJ = system: Escher. coli NIHJ
Pseud. aeruginosa EP-01 = system: Pseud. aeruginosa EP-01
Kleb Pneumoniae EK-6 = system: Kleb Pneumoniae EK-6
Staph. aureus 209-P = system: Staph. aureus 209-P
[1] = Serratia marcescens, ES75, read-out: MIC
[2] = Morganella morganii, EP14, Morg. morganii EP-14, read-out: MIC
[3] = Escherichia coli, read-out: MIC
[4] = Pseudomonas aeruginosa, EP01, Pseud. aeruginosa EP-01, read-out: MIC
[5] = Staphylococcus aureus, read-out: MIC

SMILES	MIC (Ser. marcescens ES-75; [1])	MIC (Morg. morganii EP-14; [2])	MIC (Escher. coli NIHJ; [3])	MIC (Pseud. aeruginosa EP-01; [4])	MIC (Kleb Pneumoniae EK-6; read-out: MIC)	MIC (Staph. aureus 209-P; [5])	MIC (Ser. marcescens ES-75)	MIC (Morg. morganii EP-14; Morg. morganii EP-14)	MIC (Escher. coli NIHJ)	MIC (Pseud. aeruginosa EP-01; Pseud. aeruginosa EP-01)	MIC (Kleb Pneumoniae EK-6)	MIC (Staph. aureus 209-P)
CO/N=C(\C(=O)N[C@@H]1C(=O)N2C(C(=O)[O-])=C(/C=C/C[N+]3(C)CCN(S(N)(=O)=O)CC3)CS[C@H]12)c1nsc(N)n1 [Example 27, 7β-[2-(5-Amino-1,2,4-thiadiazol-3-yl)-(Z)-2-methoxyiminoacetamido]-3-[(E)-3-(1-methyl-4-sulfamoyl-1-piperazinio)-1-propen-1-yl]-3-cephem-4-carboxylate]	0.1 µg/mL (≈ 0.166 µM)	0.05 µg/mL (≈ 0.0831 µM)	≤ 0.025 µg/mL	0.8 µg/mL (≈ 1.33 µM)	≤ 0.025 µg/mL	0.2 µg/mL (≈ 0.332 µM)	–	–	–	–	–	–
CO/N=C(\C(=O)N[C@@H]1C(=O)N2C(C(=O)[O-])=C(/C=C/C[N+]3(C)CC=C(C(N)=O)CC3)CS[C@H]12)c1nsc(N)n1 (stereo partly drawn) [Example 34, 7β-[2-(5-Amino-1,2,4-thiadiazol-3-yl)-(Z)-2-methoxyiminoacetamido]-3-[(E)-3-(1-methyl-4-carbamoyl-1,2,3,6-tetrahydropyridinio)-1-propen-1-yl]-3-cephem-4-carboxylate]	0.1 µg/mL (≈ 0.178 µM)	0.05 µg/mL (≈ 0.0889 µM)	≤ 0.025 µg/mL	0.8 µg/mL (≈ 1.42 µM)	0.1 µg/mL (≈ 0.178 µM)	0.2 µg/mL (≈ 0.355 µM)	–	–	–	–	–	–
CO/N=C(\C(=O)N[C@@H]1C(=O)N2C(C(=O)[O-])=C(/C=C/C[N+](C)(C)CCC(N)=O)CS[C@H]12)c1nsc(N)n1 [Example 35, 7β-[2-(5-Amino-1,2,4-thiadiazol-3-yl)-(Z)-2-methoxyiminoacetamido]-3-[(E)-3-[N,N-dimethyl-N-(2-carbamoylethyl)ammonio]-1-propen-1-yl]-3-cephem-4-carboxylate]	0.05 µg/mL (≈ 0.0928 µM)	0.05 µg/mL (≈ 0.0928 µM)	≤ 0.025 µg/mL	0.8 µg/mL (≈ 1.49 µM)	0.1 µg/mL (≈ 0.186 µM)	0.2 µg/mL (≈ 0.371 µM)	–	–	–	–	–	–
CO/N=C(\C(=O)N[C@@H]1C(=O)N2C(C(=O)[O-])=C(/C=C/C[N+](C)(C)Cc3ccoc3)CS[C@H]12)c1nsc(N)n1 [Example 26, 7β-[2-(5-Amino-1,2,4-thiadiazol-3-yl)-(Z)-2-methoxyiminoacetamido]-3-[(E)-3-[(furan-3-yl)-methyldimethylammonio]-1-propen-1-yl]-3-cephem-4-carboxylate]	0.05 µg/mL (≈ 0.0913 µM)	≤ 0.025 µg/mL	≤ 0.025 µg/mL	3.13 µg/mL (≈ 5.72 µM)	≤ 0.025 µg/mL	0.2 µg/mL (≈ 0.365 µM)	–	–	–	–	–	–
CO/N=C(\C(=O)N[C@@H]1C(=O)N2C(C(=O)[O-])=C(/C=C/C[n+]3ccc4n3CCOC4)CS[C@H]12)c1nsc(N)n1 [Example 14, 7β-[2-(5-Amino-1,2,4-thiadiazol-3-yl)-(Z)-2-methoxyiminoacetamido]-3-[(E)-(1-morpholino[4,3-b]pyrazolio)-1-propen-1-yl]-3-cephem-4-carboxylate]	0.05 µg/mL (≈ 0.0915 µM)	0.05 µg/mL (≈ 0.0915 µM)	≤ 0.025 µg/mL	1.56 µg/mL (≈ 2.85 µM)	≤ 0.025 µg/mL	0.2 µg/mL (≈ 0.366 µM)	–	–	–	–	–	–
CO/N=C(\C(=O)N[C@@H]1C(=O)N2C(C(=O)[O-])=C(/C=C/C[N+](C)(C)Cc3cnc[nH]3)CS[C@H]12)c1nsc(N)n1 [Example 22]	0.1 µg/mL (≈ 0.183 µM)	0.05 µg/mL (≈ 0.0913 µM)	0.05 µg/mL (≈ 0.0913 µM)	1.56 µg/mL (≈ 2.85 µM)	0.05 µg/mL (≈ 0.0913 µM)	0.2 µg/mL (≈ 0.365 µM)	–	–	–	–	–	–
CO/N=C(\C(=O)N[C@@H]1C(=O)N2C(C(=O)[O-])=C(/C=C/C[N+]3(C)CCCN3C)CS[C@H]12)c1nsc(N)n1 (single isomer, unassigned) [Example 30-B, 7β-[2-(5-Amino-1,2,4-thiadiazol-3-yl)-(Z)-2-methoxyiminoacetamido]-3-[(E)-(1,2-dimethyl-1-pirazolydinio)-1-propen-1-yl]-3-cephem-4-carboxylate]	–	–	–	–	–	–	0.05 µg/mL (≈ 0.0957 µM)	0.05 µg/mL (≈ 0.0957 µM)	≤ 0.025 µg/mL	0.8 µg/mL (≈ 1.53 µM)	≤ 0.025 µg/mL	0.1 µg/mL (≈ 0.191 µM)
CO/N=C(\C(=O)N[C@@H]1C(=O)N2C(C(=O)[O-])=C(/C=C/C[N+]3(CC(N)=O)CC[C@@H](O)C3)CS[C@H]12)c1nsc(N)n1 (some centres unmarked) [Example 45-2]	–	–	–	–	–	–	–	≤ 0.025 µg/mL	0.05 µg/mL (≈ 0.0882 µM)	0.8 µg/mL (≈ 1.41 µM)	≤ 0.025 µg/mL	0.4 µg/mL (≈ 0.706 µM)

Source: patent publication US5373000A, “7Beta-(thiadiazolyl)-2-iminoacetamido-3cephem compounds” (Eisai Co., Ltd., priority 1985, dated 1994)
